In one data set the test system is MDA-MB-231. Description: Antimigratory activity against human MDA-MB-231 cells. The data set is classed as functional, cell-based.
Data set [1] is described as follows: Induction of sodium-22 influx in human TE-671 cells. It is filed as functional, cell-based.
The species entered for data set [2] is Rattus norvegicus. Description: Protective index, ratio of TD50 for rat to ED50 for anticonvulsant activity in rat. The data set is classed as functional.
Data set [3] in a line: Toxicity in rat. The settings on record: in vivo.
The species named for data set [4] is Rattus norvegicus. Description: Anticonvulsant activity in rat maximal electroshock seizure model. It is filed as functional.
The nature of data set [5]: Selectivity index, ratio of CC50 for human HeLa cells to IC50 for Human rhinovirus 2. The data set is classed as toxicity. Particulars: read-out: Ratio CC50/IC50.
A short description of data set [6]: Selectivity index, ratio of CC50 for human HeLa cells to IC50 for Coxsackievirus B3 isolate 97-927. The settings on record: read-out: Ratio CC50/IC50. The data set is classed as toxicity.
In another data set the test system is Escherichia coli. The data set is described as follows: Antibacterial activity against Escherichia coli assessed as zone of inhibition at 50 ug/ml by agar disc diffusion method. The data set is classed as functional. Particulars: read-out: IZ. For orientation: A growth-free zone around the sample is the usual read-out of agar diffusion tests.
The next data set has as its system Staphylococcus aureus. The data set is described as follows: Antibacterial activity against Staphylococcus aureus assessed as zone of inhibition at 50 ug/ml by agar disc diffusion method. It is filed as functional. The settings on record: read-out: IZ.
For data set [7], the target named is T1, Muscarinic acetylcholine receptor M1 (Rattus norvegicus, UniProt P08482).
T1 sequence (P08482 whole entry): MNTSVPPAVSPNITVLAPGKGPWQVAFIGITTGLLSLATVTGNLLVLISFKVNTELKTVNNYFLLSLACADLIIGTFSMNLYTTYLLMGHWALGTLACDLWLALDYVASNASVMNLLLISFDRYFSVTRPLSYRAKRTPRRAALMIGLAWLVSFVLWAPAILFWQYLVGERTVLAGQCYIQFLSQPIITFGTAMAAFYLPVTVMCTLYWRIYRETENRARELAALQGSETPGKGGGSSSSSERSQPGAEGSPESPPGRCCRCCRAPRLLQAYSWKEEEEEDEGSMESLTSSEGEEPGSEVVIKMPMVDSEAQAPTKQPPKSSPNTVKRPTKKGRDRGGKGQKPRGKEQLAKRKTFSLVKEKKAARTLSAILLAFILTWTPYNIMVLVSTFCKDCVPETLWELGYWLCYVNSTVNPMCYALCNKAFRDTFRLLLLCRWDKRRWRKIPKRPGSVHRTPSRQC
The data set is described as follows: Agonist activity at rat M1 muscarinic receptor.

Data set [8] has as its target T2, Muscarinic acetylcholine receptor M2 (Rattus norvegicus, UniProt P10980).
T2 sequence (P10980 whole entry): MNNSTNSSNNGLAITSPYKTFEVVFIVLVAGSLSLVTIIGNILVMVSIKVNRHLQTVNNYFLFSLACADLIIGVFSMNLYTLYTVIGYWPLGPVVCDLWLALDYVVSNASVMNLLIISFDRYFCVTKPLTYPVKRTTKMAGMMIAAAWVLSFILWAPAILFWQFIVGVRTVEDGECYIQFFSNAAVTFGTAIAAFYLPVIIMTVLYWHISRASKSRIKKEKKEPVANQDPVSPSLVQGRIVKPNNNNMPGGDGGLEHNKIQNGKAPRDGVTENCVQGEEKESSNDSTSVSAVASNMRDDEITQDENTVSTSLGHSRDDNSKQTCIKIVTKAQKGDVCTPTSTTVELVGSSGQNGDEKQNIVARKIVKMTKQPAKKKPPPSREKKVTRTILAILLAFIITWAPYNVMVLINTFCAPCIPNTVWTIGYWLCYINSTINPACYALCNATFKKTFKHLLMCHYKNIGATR
Description: Agonist activity at rat M2 muscarinic receptor.

For another data set, the system named is Coxsackievirus B3. The data set is described as follows: Antiviral activity against Coxsackievirus B3. It is filed as functional, organism-based. Particulars: Enterovirus B.
Data set [9] deals with Human immunodeficiency virus 1. The data set is described as follows: Antiviral activity against HIV-1 assessed as reduction in multinucleated cells production at 25 ug/ml. It is filed as functional. On the set-up: scale not given: the % may be the effect or the level left. The settings on record: dose 25 µg/ml.
The species entered for the next data set is Mus musculus. The data set is described as follows: Antithrombotic activity in Swiss mouse model of collagen and adrenaline-induced thrombosis assessed as increase in bleeding time. The data set is classed as functional.

Data on 17 compounds can be found in ChEMBL document CHEMBL5260809, “Isoxazole ring as a useful scaffold in a search for new therapeutic agents” (Eur J Med Chem, 2017).

As usually defined, the pIC50 is −log10 of the IC50, conventionally taken in molar units. Usually pEC50 stands for the negative decadic logarithm of the EC50, by convention in mol/L. The TD50 is the 50% point of the dose-response relation for the toxic effect studied. Broadly, the ED50 is the midpoint of the dose-response relation. In general, EC50 refers to the concentration needed to bring the measured effect to its halfway point.

pEC50, pIC50: −log10 of the molar value. ≈ marks a conversion by molar mass, not a printed value. Some results are limits rather than exact numbers.

Turning to `CCc1cc(-c2oncc2-c2ccc(OC)cc2)c(O)cc1OC`, the pIC50 in the data set on MDA-MB-231 was 6.82.
The compound `Cc1cc(C2CC3CCC2N3)on1` (stereo not given) had a pEC50 in [1] of 5.59.
Regarding `Cc1cc(NC2=CC(=O)C(C(=O)OC(C)(C)C)C(C)C2)no1` (stereo not given), the Ratio in the data set filed under Rattus norvegicus [2] is given as >49.6.
Consider `Cc1cc(C(=O)Nc2c(C)cccc2C)no1`, for which the TD50 in [3] was > 500 mg/kg. It took a dose of 5.5 mg/kg to reach the 50% effect level in the data set listed under Rattus norvegicus [4] (ED50).
As for `Clc1ccc([C@H]2CC3CCC2N3)cn1` (stereo not given in full), in [1], the pEC50 is 6.28.
As for `Cc1cc(CCCOc2ccc(-c3ccccc3C)cc2)on1`, the selectivity ratio in data set [5] is 57.5; in data set [6], 2.6.
For `CCOC(=O)C1C(c2c(OCc3ccccc3)c(Br)cc3c(Cl)c(Cl)c(=O)oc23)=NOC1c1ccc(C(F)(F)F)cc1` (stereo not given), the zone of inhibition at 50 µg/mL in the data set with Escherichia coli amounted to 20 mm; in the data set with Staphylococcus aureus it was 24 mm.
As for `CCc1cc(-c2oncc2-c2ccc(Br)cc2)c(O)cc1OC`, the pIC50 in the data set on MDA-MB-231 is 7.30.
As to `Cc1cc(CCCOc2ccc(-c3cccc(F)c3)cc2)on1`, the selectivity ratio came to 230 in data set [5] and 2.9 in [6].
For `Cc1cc(NC(=O)c2c(C)cccc2C)on1`, the TD50 in [3] was > 500 mg/kg. For the same compound, in the data set listed under Rattus norvegicus [4], the 50% effect level (ED50) was put at a dose of 8.9 mg/kg.
Consider `C#CCOc1noc2c1CNCCC2C` (stereo not given), for which the pEC50 in data set [7] is 5.89; in data set [8], < 4.29.
With `Cc1cc(CCCOc2ccc(-c3ccc(F)cc3)cc2)on1`, the selectivity ratio in data set [5] was > 5560; in data set [6], > 37.3.
In the case of `Cc1cn(Cc2cc([C@@H](Cc3ccccc3)NC(=O)OC(C)(C)C)no2)c(=O)n(C(=O)c2ccccc2)c1=O`, the EC50 in the data set with Coxsackievirus B3 is 10.6 µg/mL (≈ 20 µM).
For `O=C(CBr)c1cc(-c2ccccc2)no1`, in [9], the Activity amounted to 95%.
`N#Cc1ccc(CN(Cc2cc(-c3ccccc3Cl)on2)C(CCCNC(=N)N)C(N)=O)cc1` (stereo not given): the Activity in the data set filed under Mus musculus is 87.5%.
Regarding `O=C(N[C@H](CO)[C@H](O)c1ccc([N+](=O)[O-])cc1)C(Cl)Cl` [CHLORAMPHENICOL], the zone of inhibition at 50 µg/mL with Escherichia coli stood at 21 mm; in the data set on Staphylococcus aureus, 23 mm.
The compound `NC(=O)c1ncn([C@@H]2O[C@H](CO)[C@@H](O)[C@H]2O)n1` [RIBAVIRIN] came in with a 50% effective concentration (EC50) in the data set with Coxsackievirus B3 of 92.5 µg/mL (≈ 379 µM).
